Legend:
IL-8 = experiment: LPS-induced IL-8 production in Intestine-Chip; assay type: cell-based, human; settings: LPS 100 μg/ml; Rifaximin 50 μg/ml; without stretch
human PXR = settings: human cells; cited from earlier work

In the case of `CO[C@H]1/C=C/O[C@@]2(C)Oc3c(C)c(O)c4c(O)c(c5c(nc6cc(C)ccn65)c4c3C2=O)NC(=O)/C(C)=C\C=C\[C@H](C)[C@H](O)[C@@H](C)[C@@H](O)[C@@H](C)[C@H](OC(C)=O)[C@@H]1C` [Rifaximin], the IL-8 (IL-8) is listed as “decrease in IL-8” and the “expression of PXR-regulated genes, including CYP3A4 and MDR1” value (human PXR) is listed as “enhanced”.
